Test results reported in patent US9856480B2, “Dnazyme for silencing the expression of EGFR” (DCB-USA LLC, priority 2013, dated 2018).
Strand notation (5' to 3'): a small letter for the sugar, then the base; units joined by * are phosphorothioate-linked, units joined directly phosphodiester-linked; [ ] holds rarer units or linkages, { } end groups; capitals alone tell only the bases. d = 2'-deoxy (DNA)

Key:
[1] = test system: wild-type EGFR mRNA; test: Quantitative real-time PCR of EGFR mRNA knockdown; format: cell-based, human; details: 100 nM, 48 h
Description: A549, CL1-5, H1975, or CL97 was seeded onto 6-well at 3×10^5 cells/well and cultured overnight. Then, cells were separately treated with 100 nM DzControl or DzT790M-1 with lipofectamine 2000 (Invitrogen). After 48 h, total mRNA were extracted from DNAzyme-treated cells by Mestrisol following manufacturer's protocol. cDNA were synthesized by using RT III kit with random hexamers as primers (Invitrogen). The PCR primers were synthesized by Genomics BioSci & Tech (Taipei, Taiwan). The sequences of PCR primers are listed as follows: […]
The parameters for PCR were: 95° C. for 10 min, then 25 cycles of PCR at 95° C. for 30 s, 60° C. for 30 s, and 72° C. for 60 s. 3% agarose gels were used for electrophoresis of PCR products. The intensity of bands were quantified by Image J. Quantitative RT-PCR was performed on 40 ng total mRNA with the LightCycler 480 system (Roche). The PCR mix contained 5 μl of 2× Probe Master mix, 100 nM of UPL probe (Roche Diagnostics, Penzberg, Germany), 200 nM of forward primer and reverse primer, 0.1 ul RNAseout (Invitrogen), and 0.025 ul RTIII enzyme (Invitrogen) in a total volume of 10 μl. PCR parameters were as follows: 50° C. for 40 min, then 45 cycles of PCR at 95° C. for 10 s, 60° C. for 10 s, and 72° C. for 2 s. Data were analyzed by LC480 software (Roche Diagnostics, Penzberg, Germany). The relative amount of EGFR mRNA was normalized to ACTB mRNA. The sequences of PCR primers are as follows: […]
To examine the allele selectivity of DzT790M-1, EGFR mRNA knockdown efficiency was detected in two cell lines harboring wild-type EGFR (A549, CL1-5) and two cell lines containing EGFR T790M mutation (H1975, CL97). A549, CL1-5, H1975, or CL97 was seeded onto 6-well at 3×10^5 cells/well and cultured overnight. […]
Then, A549 and PC9 cells were separately treated with 50, 100, or 150 nM control DNAzyme or DzEGFR—ΔE746-A750 with Lipofectamine 2000 for 48 h. […] Quantitative RT-PCR was performed on 40 ng total mRNA with the LightCycler 480 system (Roche). […] Data were analyzed by LC480 software (Roche Diagnostics). […]

[2] = test system: EGFR T790M; test: Western immunoblotting of EGFR expression and downstream signaling in EGFR T790M mutant cell lines; details: 100 nM
Description: (§2) Cells were harvested 72 h after transfecting with 100 nM DzC or DzT. 100 ng/ml EGF were added into culture medium 15 min before cell lysates were harvested. Cell lysates were analyzed by immunoblotting with indicated primary antibodies.
(§3) Cells were harvested 72 h after transfecting with 100 nM cDzC or cDzT. 100 ng/ml EGF were added into culture medium 15 min before cell lysates were harvested. Cell lysates were analyzed by immunoblotting with indicated primary antibodies.
(§4) A549, CL1-5, H1975, or CL97 was seeded onto 6-well at 3×10^5 cells/well and cultured overnight. […] The transfected A549 and CL1-5 cells were serum-starved for 24 h and treated with 100 ng/ml of EGF at 37° C. for 15 min. 72 h after transfection, cell were collected for analysis. Cells were washed twice by ice-cold PBS and then total protein was extracted by RIPA buffer with protease inhibitor (Roche). 50 μg of total protein from the supernatants were boiled for 5 min at 95° C. The samples were resolved on 10% SDS-PAGE gel and transferred onto nitrocellulose membranes. […] Secondary antibodies against rabbit IgG or mouse IgG was used at 1:5000 dilution. Protein bands on membrane were visualized by exposure to the chemiluminescence substrate.
(§5) To examine the effects of DzT790M on protein expression level of EGFR and its downstream signaling, western immunoblotting was performed on DzT790M transfected cells. A549, CL1-5, H1975, or CL97 was seeded onto 6-well at 3×10^5 cells/well and cultured overnight. […] The transfected A549 and CL1-5 cells were serum-starved for 24 h and treated with 100 ng/ml of EGF at 37° C. for 15 min. 72 h after transfection, cell were collected for analysis. Cells were washed twice by ice-cold PBS and then total protein was extracted by RIPA buffer with protease inhibitor (Roche).
(§6) The transfected CL1-5 cells were serum-starved for 24 h and treated with 100 ng/ml of EGF at 37° C. for 15 min. 72 h after transfection, cells were collected for western blotting analysis following the above mentioned procedure. Expression of EGFR and downstream signaling were examined by primary antibodies against human pEGFR (Y1068), tEGFR, pSTAT3 (Y705), tSTAT3, pAKT (S473), tAKT, pERK (T202/Y204), and tERK at 1:1000 dilution and β-actin at 1:10000 dilution, respectively.
(§7) H1975 was seeded onto 6-well at 3×10^5 cells/well and cultured overnight. […] 72 h after transfection, cells were collected for western blotting analysis following the above mentioned procedure. Expression of EGFR and downstream signaling were examined by primary antibodies against human pEGFR(Y1068), tEGFR, pSTAT3 (Y705), tSTAT3, pAKT (S473), tAKT, pERK (T202/Y204), and tERK at 1:1000 dilution and β-actin at 1:10000 dilution, respectively.
(§8) H1975^TM/LR and CL97^TM/GA cells were harvested 72 h after transfecting with DzC or DzT. […]

[3] = biological target: EGFR T790M (Homo sapiens, UniProt P00533, L858R/T790M); test: as above; details: H1975^TM/LR; 100 nM; 72 h; 100 ng/ml EGF 15 min
Description: as §2, §3, §4, §5, §6, §7, §8

[4] = test system: H1975 xenograft tumor; test: In vivo tumorigenesis assay, intratumoral DNAzyme; design: species or system Balb/c Nude mice
Description: (§1) 8-week-old Balb/c Nude mice were subcutaneously inoculated with 2×10^6 H1975 cells. After 7 days, mice were randomly divided into two groups consisting of ten mice in each group (DzControl or DzT790M-1). 500 pmoles of DzControl or DzT790M-1 mixed with lipofectamine 2000 were injected intratumorally at frequency of twice per week until completion of the experiments. The sizes of tumor were measured every 3-4 days. All the animal studies were performed according to the protocols approved by the Laboratory Animal Center, Academia Sinica. After the mice were sacrificed, the tumor tissues were excised and fixed by 10% formalin and embedded in paraffin. Xenograft tumor slides were stained for hematoxylin and eosin and analyzed with microscopy.
as §1, with “All the animal studies were performed according to the protocols approved by the Laboratory Animal Center, Academia Sinica.” left out, “microscopy. […] To assess the effects of DzT790M-1 on EGFR expression and downstream signaling, tumors taken from the Balb/c Nude mice were processed for western blotting.” for “microscopy.”

[5] = 500 pmoles intratumorally twice per week

Substance: DzT790M-1: 10-23 DNAzyme against EGFR T790M mRNA, arms 10/4, phosphorothioate ends: AGCTGCATGAGGCTAGCTACAACGAGAGC (DNA dA*dGdCdTdGdCdAdTdGdAdGdGdCdTdAdGdCdTdAdCdAdAdCdGdAdGdAdG*dC; further chemistry not fully specified)
- wild-type EGFR mRNA knockdown ([1]; A549 cells): 1.1%
- wild-type EGFR mRNA knockdown ([1]; CL1-5 cells): 19.2%
- phosphorylation of EGFR Y1068, STAT3 Y705, AKT S473 and ERK T202/Y204 ([2]; H1975 and CL97 cells, 72 h, ERK not in H1975 cells): decreased phosphorylation
- EGFR protein expression ([2]; H1975 and CL97 cells, 72 h after transfection): significantly silenced
- EGFR T790M expression and downstream signaling after EGF treatment ([2]; T790M mutant cells, 72 h, 100 ng/ml EGF 15 min): remains its suppression effect
- EGFR protein expression and downstream signaling including EGFR, STAT3, and ERK after EGF treatment [3]: remained its suppression effect
- total EGFR, pEGFR, pSTAT3, pAKT, pERK expression in xenograft tumor tissue (western blotting) [4, 5]: significantly suppressed
- tumor tissue histology (hematoxylin and eosin) [4, 5]: Severe necrosis
- tumor growth ([4]; 500 pmoles with lipofectamine 2000 intratumorally twice per week, vs DzControl): significantly suppressed
